According to patent US6897304B2, “Cephem compounds and ESBL-detecting reagents containing the same” (Zenyaku Kogyo Kabushiki Kaisha, priority 2000, dated 2005):

Key:
Details in all cases: 50 μl of 1 U/ml enzyme, 10 minutes
[1] = test system: PCase (PCase Type I); assay: Paper disk colour-change test, reactivity against β-lactamases (PCase); assay type: biochemical, B. cereus; set-up: key: −: negative; +: positive; ++: highly positive
Method: (§1) Each of the test compounds is dissolved in dimethyl sulfoxide. Paper disks with a diameter of 8 mm containing the test compounds in an amount of 5 or 25 μg per disk were prepared and dried in air. Each of these disks was added dropwise with a solution of β-lactamases (50 μl) prepared to a concentration of 1 U/ml with distilled water and allowed for 10 minutes.
(§2) PCase is an enzyme isolated from B. cereus (production of Sigma Chemical Co. :PCase Type I); and CEPase, from E. cloacae (production of Sigma chemical Co. :CEPase Type IV).

[2] = test system: ESBL; assay: Paper disk colour-change test, reactivity against β-lactamases (ESBL); assay type: biochemical; set-up: key to Reactivity against β-lactamases: ESBL: −: negative; +: positive; ++: highly positive
Method: as §1

[3] = target: T1, CEPase (CEPase Type IV) (Enterobacter cloacae, UniProt P05364); assay: Paper disk colour-change test, reactivity against β-lactamases (CEPase); assay type: biochemical, E. cloacae; set-up: key: −: negative; +: positive; ++: highly positive
T1 construct: purchased Sigma chemical Co. CEPase Type IV; host or cells: isolated from E. cloacae
T1 sequence (P05364 21-381): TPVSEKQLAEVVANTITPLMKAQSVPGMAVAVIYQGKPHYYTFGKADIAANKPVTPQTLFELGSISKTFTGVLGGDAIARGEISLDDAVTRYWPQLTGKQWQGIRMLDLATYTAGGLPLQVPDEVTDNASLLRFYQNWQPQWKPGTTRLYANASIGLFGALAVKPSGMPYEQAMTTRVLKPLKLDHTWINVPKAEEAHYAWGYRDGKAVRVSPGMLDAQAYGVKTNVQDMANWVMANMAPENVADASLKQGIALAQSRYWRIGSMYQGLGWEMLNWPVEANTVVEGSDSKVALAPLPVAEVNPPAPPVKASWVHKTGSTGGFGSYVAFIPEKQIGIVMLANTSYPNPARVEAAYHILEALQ
Method: as §1, §2

Compound | Reactivity against β-lactamases: PCase ([1]; content 5 μg/disk) | Reactivity against β-lactamases: ESBL ([2]; content 5 μg/disk) | color change ([2]; content 5 μg/disk) | Reactivity against β-lactamases: CEPase ([3]; content 5 μg/disk) | Reactivity against β-lactamases: PCase ([1]; content 25 μg/disk) | Reactivity against β-lactamases: ESBL ([2]; content 25 μg/disk) | color change ([2]; content 25 μg/disk) | Reactivity against β-lactamases: CEPase ([3]; content 25 μg/disk)
CON=C(C(=O)NC1C(=O)N2C(C(=O)O)=C(C=Cc3ccc([N+](=O)[O-])cc3)CS[C@H]12)c1csc(N)n1 (stereo partly shown) [compound 4, 7-[2-(2-aminothiazol-4-yl)-2-methoxyiminoacetamido]-3-(4-nitrostyryl)-3-cephem-4-carboxylic acid] | − | ++ | pale yellow → orange | − |  |  |  | 
Nc1nc(C(=NOCC(=O)O)C(=O)NC2C(=O)N3C(C(=O)O)=C(C=Cc4ccc([N+](=O)[O-])cc4)CS[C@H]23)cs1 (stereo partly shown) [compound 6, 7-[2-(2-aminothiazol-4-yl)-2-carboxymethoxyiminoacetamido]-3-(4-nitrostyryl)-3-cephem-4-carboxylic acid] | − | ++ | pale yellow → orange | − |  |  |  | 
CC(C)(ON=C(C(=O)NC1C(=O)N2C(C(=O)O)=C(C=Cc3ccc([N+](=O)[O-])cc3)CS[C@H]12)c1csc(N)n1)C(=O)O (stereo partly shown) [compound 2, 7-[2-(2-aminothiazol-4-yl)-2-(1-carboxy-1-methylethoxyimino)acetamido]-3-(4-nitrostyryl)-3-cephem-4-carboxylic acid] | − | + | pale yellow → orange | − |  |  |  | 
O=C(Cc1cccs1)NC1C(=O)N2C(C(=O)O)=C(C=Cc3ccc([N+](=O)[O-])cc3[N+](=O)[O-])CS[C@H]12 (stereo partly shown) [compound A, 3-(2,4-dinitrostyryl)-7-(2-thienylacetamido)-3-cephem-4-carboxylic acid, reference compound] | ++ | ++ | pale yellow → red | ++ |  |  |  | 
CC(C)(ON=C(C(=O)NC1C(=O)N2C(C(=O)O)=C(C=Cc3ccc([N+](=O)[O-])cc3[N+](=O)[O-])CS[C@H]12)c1csc(N)n1)C(=O)O (stereo partly shown) [compound 1, 7-[2-(2-aminothiazol-4-yl)-2-(1-carboxy-1-methylethoxyimino)acetamido]-3-(2,4-dinitrostyryl)-3-cephem-4-carboxylic acid] | − | ++ | pale yellow → red | − |  |  |  | 
Nc1nc(C(=NOCC(=O)O)C(=O)NC2C(=O)N3C(C(=O)O)=C(C=Cc4ccc([N+](=O)[O-])cc4[N+](=O)[O-])CS[C@H]23)cs1 (stereo partly shown) [compound 5, 7-[2-(2-aminothiazol-4-yl)-2-carboxymethoxyiminoacetamido]-3-(2,4-dinitrostyryl)-3-cephem-4-carboxylic acid] | − | ++ | pale yellow → red | − |  |  |  | 
CC(C)(ON=C(C(=O)NC1C(=O)N2C(C(=O)O)=C(C=Cc3ccc(C#N)cc3)CS[C@H]12)c1csc(N)n1)C(=O)O (stereo partly shown) [compound 3, 7-[2-(2-aminothiazol-4-yl)-2-(1-carboxy-1-methylethoxyimino)acetamido]-3-(4-cyanostyryl)-3-cephem-4-carboxylic acid] |  |  |  |  | − | + | pale yellow → golden | −
